In PMC4747340, “A new class of small molecule estrogen receptor-alpha antagonists that overcome anti-estrogen resistance” (Oncotarget, 2015):

What was measured:
Format in all cases: cell-based
BRCA1: ER complex = target: T1, BRCA1: ER complex (Homo sapiens, UniProt P03372); assay: immunoprecipitation-Western blotting of BRCA1:ER complex in MCF-7 cells
T1 construct: endogenous in cells; host or cells: MCF-7
Protocol: Figure 7 Compound 4631-P/1 disrupts the BRCA1/ER interaction in MCF-7 cells A., B. MCF-7 cells were incubated with the indicated with compound 4631-P/1 (1 or 20 μM) or vehicle only (DMSO) plus E2 (10 nM) for 24 hr; and the cells were harvested for immunoprecipitation of ER (A) or BRCA1 (B), followed by Western blotting for ER and BRCA1. As a negative control, cells treated with vehicle (DMSO) only were subjected to an IP with normal IgG. C. Unprecipitated lysates from cells treated as in panel A were subjected to Western blotting to detect BRCA1, ER, or actin (loading control). The data shown in each panel are representative of three independent experiments.
After the indicated treatments, cells were harvested, and whole cell extracts were prepared in IP buffer [10 mM Tris-HCl (pH 7.4), 150 mM NaCl, 1 mM EDTA, 1 mM EGTA, 1% Triton X-100, 0.5% IGEPAL CA-630 (Sigma), 10% glycerol, 1 mM sodium orthovanadate, and protease inhibitor cocktail (Santa Cruz)] [11, 18]. Each IP was carried out using 2-μg antibody and 500-μg extract protein. […] For each experiment, a control IP using an equal quantity of normal mouse or rabbit IgG (Santa Cruz) was carried out. […]

ER Arg394Ala = target: T2, ER Arg394Ala (Homo sapiens, UniProt P03372, R394A); assay: ER mutation analysis, ERE-TK-Luc reporter in transfected MDA-MB-231 cells; conditions: MDA-MB-231 transfected with mutant ER, E2 10 nM, 24 hr
T2 construct: expressed in transfected cells; host or cells: MDA-MB-231
T2 sequence (P03372 whole entry R394A): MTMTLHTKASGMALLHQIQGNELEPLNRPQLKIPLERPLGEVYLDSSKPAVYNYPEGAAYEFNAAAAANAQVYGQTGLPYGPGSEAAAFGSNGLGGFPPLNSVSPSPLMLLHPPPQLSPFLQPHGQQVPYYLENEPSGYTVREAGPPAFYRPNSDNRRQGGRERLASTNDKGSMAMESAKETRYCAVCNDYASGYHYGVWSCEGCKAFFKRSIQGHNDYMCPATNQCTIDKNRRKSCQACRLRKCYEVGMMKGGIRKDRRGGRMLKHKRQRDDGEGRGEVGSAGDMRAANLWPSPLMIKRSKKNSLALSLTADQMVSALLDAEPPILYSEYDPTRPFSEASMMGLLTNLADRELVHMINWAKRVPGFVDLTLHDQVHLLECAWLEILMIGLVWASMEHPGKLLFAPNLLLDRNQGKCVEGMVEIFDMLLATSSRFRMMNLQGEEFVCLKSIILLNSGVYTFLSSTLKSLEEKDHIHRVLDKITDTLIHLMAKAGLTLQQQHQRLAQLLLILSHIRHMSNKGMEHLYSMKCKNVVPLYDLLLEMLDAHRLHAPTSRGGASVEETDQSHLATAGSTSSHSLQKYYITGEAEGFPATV
From the text: (§1) B., C. Panels B and C show a comparison of the ER interaction of one of our original series of compounds (A7) (B) and one new compounds (48693-K/1) (C). ER is represented by gray ribbon and its residues interacting with the compounds are drawn with wireframe and labeled. […] The hydrogen bond interaction with ARG 394 is shown in green line. […] The cells were harvested for luciferase assays. Luciferase values are expressed as a percent of the +E2 vehicle control and are means ± SEMs of four wells. The data shown in panels D to G are representative of three independent experiments.
(§2) Subconfluent cells in 24-well dishes were transfected overnight with 0.25 μg of each indicated vector plus the ERE-TK-Luc reporter in serum-free DMEM containing Lipofectamine2000 (Life Technologies, Washington, DC). Total transfected DNA was kept constant by addition of control vector. The cells were washed, incubated in phenol red-free DMEM containing 5% charcoal-stripped serum (obtained from the Tissue Culture Shared Resource) (0.2 ml/well) ± E2 (10 nM) ± the indicated compound for 24-hr, and harvested for luciferase assays. For each assay condition was tested in quadrupicate. To monitor the transfection efficiency, cultures were co-transfected with plasmid pRSV-β-gal (Promega, Madison, WI) to visualize transfected cells by X-gal staining.

ER Leu327Ala = target: T3, ER Leu327Ala (Homo sapiens, UniProt P03372, L327A); assay: as above; conditions: MDA-MB-231 transfected with mutant ER, E2 10 nM, 24 hr
T3 construct: expressed in transfected cells; host or cells: MDA-MB-231
T3 sequence (P03372 whole entry L327A): as the sequence (P03372 whole entry R394A) above, with L327A, A394R counted along it
From the text: as §1, §2

ER Ile386Ala+Leu387Ala = target: T4, ER Ile386Ala+Leu387Ala (Homo sapiens, UniProt P03372, I386A/L387A); assay: as above; conditions: MDA-MB-231 transfected with mutant ER, E2 10 nM, 24 hr
T4 construct: expressed in transfected cells; host or cells: MDA-MB-231
T4 sequence (P03372 whole entry I386A/L387A): as the sequence (P03372 whole entry R394A) above, with I386A, L387A, A394R counted along it
From the text: as §1, §2

ER Glu323Ala = target: T5, ER Glu323Ala (Homo sapiens, UniProt P03372, E323A); assay: as above; conditions: MDA-MB-231 transfected with mutant ER, E2 10 nM, 24 hr
T5 construct: expressed in transfected cells; host or cells: MDA-MB-231
T5 sequence (P03372 whole entry E323A): as the sequence (P03372 whole entry R394A) above, with E323A, A394R counted along it
From the text: as §1, §2

ER Leu387Ala = target: T6, ER Leu387Ala (Homo sapiens, UniProt P03372, L387A); assay: as above; conditions: MDA-MB-231 transfected with mutant ER, E2 10 nM, 24 hr
T6 construct: expressed in transfected cells; host or cells: MDA-MB-231
T6 sequence (P03372 whole entry L387A): as the sequence (P03372 whole entry R394A) above, with L387A, A394R counted along it
From the text: as §1, §2

Wild-type ER = target: T7, Wild-type ER (Homo sapiens, UniProt P03372); assay: as above; conditions: MDA-MB-231 transfected with wtER, E2 10 nM, 24 hr
T7 construct: expressed in transfected cells; host or cells: MDA-MB-231
T7 sequence (P03372 whole entry): as the sequence (P03372 whole entry R394A) above, with A394R counted along it
From the text: as §1, §2

ER Pro325Ala = target: T8, ER Pro325Ala (Homo sapiens, UniProt P03372, P325A); assay: as above; conditions: MDA-MB-231 transfected with mutant ER, E2 10 nM, 24 hr
T8 construct: expressed in transfected cells; host or cells: MDA-MB-231
T8 sequence (P03372 whole entry P325A): as the sequence (P03372 whole entry R394A) above, with P325A, A394R counted along it
From the text: as §1, §2

ER Lys449Ala = target: T9, ER Lys449Ala (Homo sapiens, UniProt P03372, K449A); assay: as above; conditions: MDA-MB-231 transfected with mutant ER, E2 10 nM, 24 hr
T9 construct: expressed in transfected cells; host or cells: MDA-MB-231
T9 sequence (P03372 whole entry K449A): as the sequence (P03372 whole entry R394A) above, with A394R, K449A counted along it
From the text: as §1, §2

ER-β = target: T10, ER-β (Homo sapiens, UniProt Q92731); assay: E2-stimulated ER-β activity, ERE-TK-Luc reporter in transfected DU-145 cells
T10 construct: host or cells: DU-145
T10 sequence (Q92731 whole entry): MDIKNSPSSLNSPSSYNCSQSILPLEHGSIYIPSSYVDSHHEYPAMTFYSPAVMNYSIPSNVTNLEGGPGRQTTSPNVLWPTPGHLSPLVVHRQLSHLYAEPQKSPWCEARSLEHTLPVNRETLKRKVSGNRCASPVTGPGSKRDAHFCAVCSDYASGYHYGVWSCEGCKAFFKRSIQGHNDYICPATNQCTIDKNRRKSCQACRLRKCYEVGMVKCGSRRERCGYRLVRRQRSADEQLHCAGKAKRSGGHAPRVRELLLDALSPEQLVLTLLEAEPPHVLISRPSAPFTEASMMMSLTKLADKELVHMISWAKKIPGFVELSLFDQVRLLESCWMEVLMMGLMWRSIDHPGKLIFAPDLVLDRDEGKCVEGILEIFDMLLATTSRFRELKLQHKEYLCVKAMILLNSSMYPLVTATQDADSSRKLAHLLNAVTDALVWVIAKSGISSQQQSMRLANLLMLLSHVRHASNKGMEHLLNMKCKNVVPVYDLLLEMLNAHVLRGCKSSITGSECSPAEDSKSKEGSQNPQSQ
Protocol: Figure 12 Compound 35446 inhibits the activity of ER-β Subconfluent proliferating DU-145 cells in 24-well dishes were transfected overnight with the ER=α or ER=β expression vector plus the ERE-TK-Luc reporter plasmid (0.25 μg per plasmid/well), washed, and allowed to recover for several hours in fresh culture medium. The cells were then post-incubated for 24 hr to allow gene expression, after which they were treated ± E2 (10 nM) and ± compound 35446 (20 μM) (or compound B2 as a negative control) for 24 hr and assayed for luciferase activity. Luciferase activity is expressed relative to the no E2 control. Values are means ± SEMs of four replicate wells. The data shown in each panel are representative of three independent experiments.
To determine the effect of compound on ER-β activity, an ER- β expression plasmid (cat. no.: 35562, Addgene, Cambridge) was co-transfected into ER- DU-145 human prostate carcinoma cells along with the ERE-TK-Luc reporter plasmid (0.25 μg of each plasmid) and the cells were incubated overnight to allow gene expression. The cells were then treated ± E2 (10 nM) and ± the indicated compound for 24-hr, and harvested for luciferase assays as above.

T1 sequence (P03372 whole entry, one chain of several): as the sequence (P03372 whole entry R394A) above, with A394R counted along it

effect on total levels of ER or BRCA1 (BRCA1: ER complex; MCF-7, Western blotting of non-precipitated lysates)	SMILES	dissociation of the BRCA1: ER complex (BRCA1: ER complex; MCF-7, E2 10 nM, compound 0, 1, 20 μM, 24 hr, IP-Western)	IC50 (ER Arg394Ala) [µM]	IC50 (ER Leu327Ala) [µM]	IC50 (ER Ile386Ala+Leu387Ala) [µM]	IC50 (ER Glu323Ala) [µM]	IC50 (ER Leu387Ala) [µM]	IC50 (Wild-type ER) [µM]	IC50 (ER Pro325Ala) [µM]	IC50 (ER Lys449Ala) [µM]	inhibition at 20 µM (ER-β; DU-145, read-out: inhibition of E2-stimulated ER-β activity) [%]	IC50 (ER-β; DU-145 transfected with ER-β, E2 10 nM, 24 hr, read-out: IC50 for inhibition of ER-β activity) [nM]
no effect	O=C(c1cc(Br)ccc1O)c1cc(Br)ccc1O [4631-P/1]	concentration-dependent dissociation of ER and BRCA1										
	O=C(CC(c1ccccc1)N1CCCCC1)c1ccccc1 (stereo not drawn) [35446-L/1, 1,3-diphenyl-3-(piperidin-1-yl)propan-1-one]		> 15	0.9	> 15	0.9	5	0.8	0.9	> 15	~67	2000
